In assay [1] the target is Vascular endothelial growth factor receptor 2 (Homo sapiens, UniProt P35968). Kind of assay: Inhibition of VEGFR2 by HTRF assay.
The target of assay [2] is Receptor-type tyrosine-protein kinase FLT3 (Homo sapiens) (UniProt P36888). Kind of assay: Inhibition of FLT3 at 10 uM.
For assay [3], the target named is Epidermal growth factor receptor (Homo sapiens) (UniProt P00533). Conditions: 10 uM.
Description: Inhibition of EGFR at 10 uM
Assay [4] concerns the target Insulin receptor (Homo sapiens) (UniProt P06213). Briefly: Inhibition of InsR at 10 uM.
Assay [5] deals with Insulin-like growth factor 1 receptor (Homo sapiens) (UniProt P08069). Kind of assay: Inhibition of IGF1R at 10 uM.
Assay [6] has as its target Hepatocyte growth factor receptor (Homo sapiens) (UniProt P08581). Briefly: Inhibition of c-Met at 10 uM.

Structures are written as SMILES.

Vascular endothelial growth factor receptor 2, sequence (P35968 whole entry): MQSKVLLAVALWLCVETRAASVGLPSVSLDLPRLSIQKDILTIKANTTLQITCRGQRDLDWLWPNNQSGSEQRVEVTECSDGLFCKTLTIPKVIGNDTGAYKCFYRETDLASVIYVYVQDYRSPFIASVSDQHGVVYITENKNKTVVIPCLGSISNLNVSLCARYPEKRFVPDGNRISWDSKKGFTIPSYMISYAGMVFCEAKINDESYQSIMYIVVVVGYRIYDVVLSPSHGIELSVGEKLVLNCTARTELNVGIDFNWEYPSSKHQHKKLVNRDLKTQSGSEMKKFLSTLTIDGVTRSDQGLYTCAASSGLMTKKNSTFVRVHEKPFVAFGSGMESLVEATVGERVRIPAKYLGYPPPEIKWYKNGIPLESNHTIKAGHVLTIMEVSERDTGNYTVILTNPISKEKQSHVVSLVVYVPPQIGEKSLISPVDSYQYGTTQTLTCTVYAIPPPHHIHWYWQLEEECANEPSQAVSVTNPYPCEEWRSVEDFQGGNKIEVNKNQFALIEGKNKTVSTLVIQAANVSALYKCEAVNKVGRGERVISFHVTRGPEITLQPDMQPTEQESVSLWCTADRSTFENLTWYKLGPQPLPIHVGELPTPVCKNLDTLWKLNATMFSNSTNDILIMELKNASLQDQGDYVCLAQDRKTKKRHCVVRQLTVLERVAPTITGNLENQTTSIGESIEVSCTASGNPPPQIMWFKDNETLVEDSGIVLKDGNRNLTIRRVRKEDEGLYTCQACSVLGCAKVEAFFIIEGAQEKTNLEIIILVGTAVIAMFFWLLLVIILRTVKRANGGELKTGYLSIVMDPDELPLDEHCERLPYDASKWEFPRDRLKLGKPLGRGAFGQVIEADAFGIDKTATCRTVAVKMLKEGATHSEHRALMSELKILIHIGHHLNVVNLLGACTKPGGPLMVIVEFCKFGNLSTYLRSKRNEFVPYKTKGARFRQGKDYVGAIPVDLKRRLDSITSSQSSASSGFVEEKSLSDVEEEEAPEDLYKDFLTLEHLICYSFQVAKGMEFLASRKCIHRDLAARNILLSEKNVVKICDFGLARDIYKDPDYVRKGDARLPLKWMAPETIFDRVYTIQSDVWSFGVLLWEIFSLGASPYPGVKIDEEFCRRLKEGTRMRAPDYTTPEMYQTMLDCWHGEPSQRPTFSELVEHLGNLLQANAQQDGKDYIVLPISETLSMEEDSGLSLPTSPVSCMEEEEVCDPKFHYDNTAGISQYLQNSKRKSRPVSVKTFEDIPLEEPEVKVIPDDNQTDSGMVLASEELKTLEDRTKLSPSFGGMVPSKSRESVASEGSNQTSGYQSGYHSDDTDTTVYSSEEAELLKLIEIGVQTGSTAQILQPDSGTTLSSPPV
Hepatocyte growth factor receptor (Homo sapiens), sequence (P08581 whole entry): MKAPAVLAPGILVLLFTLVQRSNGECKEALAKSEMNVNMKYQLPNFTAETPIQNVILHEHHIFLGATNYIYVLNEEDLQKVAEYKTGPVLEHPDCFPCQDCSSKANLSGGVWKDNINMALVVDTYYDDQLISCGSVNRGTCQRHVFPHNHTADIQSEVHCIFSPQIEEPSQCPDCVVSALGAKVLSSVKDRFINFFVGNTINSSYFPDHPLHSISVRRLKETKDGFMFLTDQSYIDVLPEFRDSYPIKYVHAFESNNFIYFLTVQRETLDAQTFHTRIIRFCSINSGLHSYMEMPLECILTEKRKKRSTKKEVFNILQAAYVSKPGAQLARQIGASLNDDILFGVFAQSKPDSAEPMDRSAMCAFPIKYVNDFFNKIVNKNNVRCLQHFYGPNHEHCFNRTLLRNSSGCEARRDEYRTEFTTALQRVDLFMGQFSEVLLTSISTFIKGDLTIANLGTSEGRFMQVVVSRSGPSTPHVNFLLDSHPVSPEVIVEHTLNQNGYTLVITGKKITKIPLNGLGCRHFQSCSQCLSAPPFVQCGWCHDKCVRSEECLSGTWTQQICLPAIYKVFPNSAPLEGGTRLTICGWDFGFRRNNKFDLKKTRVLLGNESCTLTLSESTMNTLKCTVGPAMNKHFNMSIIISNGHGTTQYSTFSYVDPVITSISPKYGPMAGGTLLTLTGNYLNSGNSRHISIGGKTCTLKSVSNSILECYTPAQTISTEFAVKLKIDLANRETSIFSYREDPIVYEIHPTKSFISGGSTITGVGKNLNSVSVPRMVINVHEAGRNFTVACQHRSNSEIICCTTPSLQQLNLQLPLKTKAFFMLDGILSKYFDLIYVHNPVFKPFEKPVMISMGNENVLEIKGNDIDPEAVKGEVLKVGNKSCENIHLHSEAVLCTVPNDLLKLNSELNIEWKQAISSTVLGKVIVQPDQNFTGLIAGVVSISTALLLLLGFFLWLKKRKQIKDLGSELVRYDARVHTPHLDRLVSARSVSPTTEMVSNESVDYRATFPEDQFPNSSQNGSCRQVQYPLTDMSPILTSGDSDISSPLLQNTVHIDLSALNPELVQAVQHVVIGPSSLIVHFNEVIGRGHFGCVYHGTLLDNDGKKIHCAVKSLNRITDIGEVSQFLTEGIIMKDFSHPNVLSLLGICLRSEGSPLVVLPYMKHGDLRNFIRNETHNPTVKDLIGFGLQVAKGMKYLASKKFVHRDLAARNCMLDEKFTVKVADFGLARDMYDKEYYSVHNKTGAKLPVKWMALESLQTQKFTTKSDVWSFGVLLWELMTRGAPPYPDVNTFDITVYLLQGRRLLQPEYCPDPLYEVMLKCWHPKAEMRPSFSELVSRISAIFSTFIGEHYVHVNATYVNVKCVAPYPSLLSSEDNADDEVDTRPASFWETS
Epidermal growth factor receptor (Homo sapiens), sequence (P00533 whole entry): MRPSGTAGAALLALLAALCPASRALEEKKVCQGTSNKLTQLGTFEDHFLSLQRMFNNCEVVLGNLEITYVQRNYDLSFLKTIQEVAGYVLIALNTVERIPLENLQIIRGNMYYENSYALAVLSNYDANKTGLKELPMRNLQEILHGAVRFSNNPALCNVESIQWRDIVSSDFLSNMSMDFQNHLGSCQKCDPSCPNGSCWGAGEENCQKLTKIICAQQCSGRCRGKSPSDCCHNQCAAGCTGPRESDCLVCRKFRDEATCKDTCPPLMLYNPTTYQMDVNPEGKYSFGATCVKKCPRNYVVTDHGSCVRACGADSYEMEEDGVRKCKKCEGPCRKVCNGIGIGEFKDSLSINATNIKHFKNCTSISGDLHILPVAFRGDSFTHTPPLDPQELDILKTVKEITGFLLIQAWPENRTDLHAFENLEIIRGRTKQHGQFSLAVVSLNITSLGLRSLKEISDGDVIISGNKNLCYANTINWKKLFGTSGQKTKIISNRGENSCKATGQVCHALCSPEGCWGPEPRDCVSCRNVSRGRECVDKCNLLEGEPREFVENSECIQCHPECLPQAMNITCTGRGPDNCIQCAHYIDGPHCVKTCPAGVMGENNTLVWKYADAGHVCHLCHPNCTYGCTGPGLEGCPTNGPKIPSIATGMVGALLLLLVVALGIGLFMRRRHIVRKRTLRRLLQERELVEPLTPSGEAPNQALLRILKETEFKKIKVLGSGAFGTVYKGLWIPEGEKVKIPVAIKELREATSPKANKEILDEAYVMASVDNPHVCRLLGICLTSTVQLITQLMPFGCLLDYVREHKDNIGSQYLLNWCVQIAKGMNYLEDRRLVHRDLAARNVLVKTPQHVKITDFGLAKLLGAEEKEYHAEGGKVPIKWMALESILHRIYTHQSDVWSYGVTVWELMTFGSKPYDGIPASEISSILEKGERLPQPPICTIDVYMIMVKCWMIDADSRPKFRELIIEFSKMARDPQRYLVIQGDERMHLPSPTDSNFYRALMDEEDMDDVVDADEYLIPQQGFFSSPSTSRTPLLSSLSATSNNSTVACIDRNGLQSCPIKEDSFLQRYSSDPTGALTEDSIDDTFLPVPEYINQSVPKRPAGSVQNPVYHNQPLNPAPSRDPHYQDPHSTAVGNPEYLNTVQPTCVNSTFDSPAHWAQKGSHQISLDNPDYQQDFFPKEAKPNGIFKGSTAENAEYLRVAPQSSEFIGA
Receptor-type tyrosine-protein kinase FLT3 (Homo sapiens), sequence (P36888 whole entry): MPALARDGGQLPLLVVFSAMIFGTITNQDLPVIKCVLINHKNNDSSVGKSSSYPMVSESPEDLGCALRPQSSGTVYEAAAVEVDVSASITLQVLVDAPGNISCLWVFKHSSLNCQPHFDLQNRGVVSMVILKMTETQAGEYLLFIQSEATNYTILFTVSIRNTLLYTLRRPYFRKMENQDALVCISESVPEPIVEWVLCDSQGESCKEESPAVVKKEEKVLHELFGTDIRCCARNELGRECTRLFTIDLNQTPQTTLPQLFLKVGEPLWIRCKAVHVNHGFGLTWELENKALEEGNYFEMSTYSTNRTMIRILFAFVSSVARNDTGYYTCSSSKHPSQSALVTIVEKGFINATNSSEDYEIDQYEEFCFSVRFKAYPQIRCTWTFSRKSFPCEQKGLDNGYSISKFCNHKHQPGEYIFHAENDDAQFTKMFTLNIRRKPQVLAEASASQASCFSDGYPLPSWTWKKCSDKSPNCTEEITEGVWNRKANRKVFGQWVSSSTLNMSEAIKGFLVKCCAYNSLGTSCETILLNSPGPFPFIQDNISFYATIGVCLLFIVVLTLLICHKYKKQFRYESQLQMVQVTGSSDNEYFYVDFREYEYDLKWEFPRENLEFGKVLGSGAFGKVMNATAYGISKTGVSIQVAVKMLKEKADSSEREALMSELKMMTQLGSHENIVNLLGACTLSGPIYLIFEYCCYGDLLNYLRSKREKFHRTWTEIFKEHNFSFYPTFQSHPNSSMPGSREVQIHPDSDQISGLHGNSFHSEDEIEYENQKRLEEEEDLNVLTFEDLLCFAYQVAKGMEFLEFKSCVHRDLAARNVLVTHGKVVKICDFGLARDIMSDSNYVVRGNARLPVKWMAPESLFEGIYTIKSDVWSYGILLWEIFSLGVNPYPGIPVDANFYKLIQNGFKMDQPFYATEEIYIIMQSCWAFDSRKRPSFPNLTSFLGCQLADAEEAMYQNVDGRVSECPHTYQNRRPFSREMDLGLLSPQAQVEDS

Consider `Clc1ccc(Nc2nnc(-c3cn[nH]c3)c3ccccc23)cc1`, for which the IC50 in assay [1] was > 10 µM.

Turning to `Cn1cc(-c2nnc(Nc3ccc(Cl)cc3)c3ccccc23)cn1`, in assay [1], the IC50 is > 10 µM.

Consider `Clc1ccc(Nc2nnc(-c3cccc4cnccc34)c3ccccc23)cc1`, for which the inhibition in assay [2] was 33%; in assay [3], 13%; in assay [4], 10%; in assay [5], 25%; in assay [6] it was 2%. The same compound had an IC50 in assay [1] of 0.048 µM.

The values are drawn from ChEMBL document CHEMBL1146055, “Arylphthalazines. Part 2: 1-(Isoquinolin-5-yl)-4-arylamino phthalazines as potent inhibitors of VEGF receptors I and II” (Bioorg Med Chem Lett, 2006).
